Structures are written as SMILES. Where only a bound is given, the exact number is not on record here.

For this test, the target named is T1, LPA/S1P GPCR of interest (Homo sapiens, UniProt Q92633).
T1 construct: host or cells: CHO
T1 sequence (Q92633 whole entry): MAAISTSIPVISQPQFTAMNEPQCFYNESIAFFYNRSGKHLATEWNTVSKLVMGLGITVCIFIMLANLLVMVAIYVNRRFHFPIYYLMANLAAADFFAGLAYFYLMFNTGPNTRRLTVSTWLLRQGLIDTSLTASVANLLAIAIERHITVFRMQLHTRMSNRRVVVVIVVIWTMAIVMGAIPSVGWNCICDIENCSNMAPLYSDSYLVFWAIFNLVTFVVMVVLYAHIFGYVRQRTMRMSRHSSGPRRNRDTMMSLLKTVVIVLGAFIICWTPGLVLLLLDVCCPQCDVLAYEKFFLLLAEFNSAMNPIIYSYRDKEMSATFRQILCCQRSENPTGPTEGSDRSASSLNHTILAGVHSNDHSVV
In words: Beta-Arrestin based assay (PathHunter). Format: cell-based. On the procedure: CMV promoter based DNA constructs expressing a fusion of the LPA/S1P GPCR of interest and ProLink™ tag were used to transfect EA Parental™ CHO cells (DiscoverX, Fremont, Calif.) using a FuGENE® transfection kit (Roche). Beta-Arrestin based assays were conducted 24-48 hrs post transfection using PathHunter® assay kits (DiscoverX, Fremont, Calif.). Agonist and antagonist assays were performed in quadruplicate in white 384 well plates. End point luminescence data were plotted and fit to a 4 parameter logistic function to obtain IC50 values. For antagonist assays, an IC80 concentration of agonist (LPA) equal to 0.5 micromolar was used.
A word on the EC50: it is the midpoint of the concentration-response curve. Lower therefore signals greater potency. In turn, `C[C@@H](OC(=O)Nc1c(-c2cc3sc(-c4ccc(-c5nnc(C6(C(=O)O)CC6)o5)cc4)cc3s2)nnn1C)c1ccccc1` [IT218] yielded an EC50 greater than 500 nM.

The compound `C[C@@H](OC(=O)Nc1c(-c2cc3sc(-c4ccc(CC(=O)O)c5ccccc45)cc3s2)cnn1C)c1ccccc1` [IT319] displayed a half-maximal effective concentration (EC50) greater than 500 nM.

`C[C@@H](OC(=O)Nc1c(-c2cc3sc(-c4ccc5scc(CC(=O)O)c5c4)cc3s2)cnn1C)c1ccccc1` [IT353]: the EC50 was 50 to 500 nM.

Turning to `C[C@@H](OC(=O)Nc1c(-c2cc3sc(-c4ccc(C5(C(=O)O)CC5)c5ccccc45)cc3s2)nnn1C)c1ccccc1` [IT321], the EC50 lay in the range of 50 to 500 nM.

Compound `Cc1nsc(-c2cc3sc(-c4ccc(C5(C(=O)O)CC5)c(C(F)(F)F)c4)cc3s2)c1NC(=O)O[C@H](C)c1ccccc1` [IT381] yielded a 50% effective concentration (EC50) of 50 to 500 nM.

Take `Cc1noc(-c2ccc(-c3ccc(Oc4c(C(=O)O)ncn4C)cc3)cc2)c1NC(=O)O[C@H](C)c1ccccc1` [IT444]: the EC50 was less than 50 nM.

The compound `COc1cc(-c2cc3sc(-c4cnn(C)c4NC(=O)O[C@H](C)c4ccccc4)cc3s2)c(OC)cc1CC(=O)O` [IT349] came in with a concentration giving a half-maximal response (EC50) greater than 500 nM.

`Cc1nsc(-c2cc3sc(-c4cc(F)c(C5(C(=O)O)CC5)cc4F)cc3s2)c1NC(=O)O[C@H](C)c1ccccc1` [IT346] yielded a half-maximal effective concentration (EC50) of less than 50 nM.

In the case of `Cc1nsc(-c2cc3sc(-c4ccc5c(CC(=O)O)coc5c4)cc3s2)c1NC(=O)O[C@H](C)c1ccccc1` [IT290], the EC50 is greater than 500 nM.

In the case of `C[C@@H](OC(=O)Nc1c(-c2cc(F)c(-c3cc(F)c(Oc4ncccc4C(=O)O)c(F)c3)cc2F)cnn1C)c1ccccc1` [IT473], the EC50 is less than 50 nM.

Regarding `C[C@@H](OC(=O)Nc1c(-c2ccc(C#CC(=O)Nc3ccccc3C(=O)O)cc2)cnn1C)c1ccccc1` [IT430], the EC50 was greater than 500 nM.

The compound `COc1cc(-c2cc3sc(-c4snc(C)c4NC(=O)O[C@H](C)c4ccccc4)cc3s2)c(OC)cc1CC(=O)O` [IT351] returned a concentration for a half-maximal effect (EC50) greater than 500 nM.

For `Cc1noc(-c2ccc(-c3ccc(Oc4ncoc4C(=O)O)cc3)cc2)c1NC(=O)O[C@H](C)c1ccccc1` [IT419], the EC50 fell in the range of 50 to 500 nM.

As for `COc1cc(-c2cc3sc(-c4nnn(C)c4NC(=O)O[C@H](C)c4ccccc4)cc3s2)cnc1C1(C(=O)O)CC1` [IT358], the EC50 lay in the range of 50 to 500 nM.

Regarding `C[C@@H](OC(=O)Nc1c(-c2cc3sc(-c4ccc(CC(=O)O)c(S(C)(=O)=O)c4)cc3s2)cnn1C)c1ccccc1` [IT445], the EC50 was greater than 500 nM.

`C[C@@H](OC(=O)Nc1c(-c2cc3sc(-c4ccc(CC(=O)O)c(S(C)(=O)=O)c4)cc3s2)nnn1C)c1ccccc1` [IT443] displayed an EC50 greater than 500 nM.

Turning to `C[C@@H](OC(=O)Nc1c(-c2cc3sc(-c4ccc(C5(C(=O)O)CC5)cc4OC(F)(F)F)cc3s2)cnn1C)c1ccccc1` [IT385], the EC50 fell in the range of 50 to 500 nM.

Compound `C[C@@H](OC(=O)Nc1c(-c2cc3sc(-c4ccc(C5(C(=O)O)CC5)c(C(F)(F)F)c4)cc3s2)nnn1C)c1ccccc1` [IT380] came in with an EC50 of 50 to 500 nM.

Consider `C[C@@H](OC(=O)Nc1c(-c2cc3sc(-c4ccc(C5(C(=O)O)CC5)c5ccccc45)cc3s2)cnn1C)c1ccccc1` [IT320], for which the 50% effective concentration (EC50) was greater than 500 nM.

Compound `Cc1nsc(-c2cc3sc(-c4ccc(C5(C(=O)O)CC5)c(F)c4)cc3s2)c1NC(=O)O[C@H](C)c1ccccc1` [IT297] came in with an EC50 of less than 50 nM.

Turning to `C[C@@H](OC(=O)Nc1c(-c2ccc(C#CC(=O)Nc3cccc(C(=O)O)c3)cc2)cnn1C)c1ccccc1` [IT429], the EC50 was greater than 500 nM.

`C[C@@H](OC(=O)Nc1c(-c2cc3sc(-c4ccc(CC(=O)O)cc4OC(F)(F)F)cc3s2)nnn1C)c1ccccc1` [IT416] gave an EC50 greater than 500 nM.

With `Cc1nsc(-c2cc3sc(-c4ccc5scc(C6(C(=O)O)CC6)c5c4)cc3s2)c1NC(=O)O[C@H](C)c1ccccc1` [IT373], the concentration for a half-maximal effect (EC50) was greater than 500 nM.

Take `C[C@@H](OC(=O)Nc1c(-c2cc3sc(-c4cc(F)c(CC(=O)O)cc4F)cc3s2)nnn1C)c1ccccc1` [IT328]: the half-maximal effective concentration (EC50) lay in the range of 50 to 500 nM.

As to `Cc1nsc(-c2cc3sc(-c4ccc(C5(C(=O)O)CC5)cc4Cl)cc3s2)c1NC(=O)O[C@H](C)c1ccccc1` [IT391], the concentration for a half-maximal effect (EC50) was 50 to 500 nM.

`Cc1cc(-c2cc3sc(-c4snc(C)c4NC(=O)O[C@H](C)c4ccccc4)cc3s2)c(F)cc1C1(C(=O)O)CC1` [IT338]: the half-maximal effective concentration (EC50) fell in the range of 50 to 500 nM.

In turn, `C[C@@H](OC(=O)Nc1c(-c2cc3sc(-c4ccc(C5(C(=O)O)CC5)cc4C(F)(F)F)cc3s2)cnn1C)c1ccccc1` [IT247] displayed an EC50 of 50 to 500 nM.

As for `Cc1cc(-c2cc3sc(-c4nnn(C)c4NC(=O)O[C@H](C)c4ccccc4)cc3s2)ccc1CC(=O)O` [IT250], the concentration for a half-maximal effect (EC50) was in the range of 50 to 500 nM.

In the case of `COc1cc(-c2cc3sc(-c4nnn(C)c4NC(=O)O[C@H](C)c4ccccc4)cc3s2)c(OC)cc1CC(=O)O` [IT350], the EC50 was greater than 500 nM.

Compound `Cc1nsc(-c2ccc(-c3nnc(C4(C(=O)O)CC4)s3)cc2)c1NC(=O)O[C@H](C)c1ccccc1` [IT200] yielded a half-maximal effective concentration (EC50) greater than 500 nM.

With `Cc1nsc(-c2cc3sc(-c4ccc(C5(C(=O)O)CC5)cc4C(F)(F)F)cc3s2)c1NC(=O)O[C@H](C)c1ccccc1` [IT248], the EC50 is greater than 500 nM.

With `C[C@@H](OC(=O)Nc1c(-c2ccc(C#CC(=O)NCC(=O)O)cc2)cnn1C)c1ccccc1` [IT398], the concentration for a half-maximal effect (EC50) was greater than 500 nM.

Take `Cc1cc(-c2cc3sc(-c4snc(C)c4NC(=O)O[C@H](C)c4ccccc4)cc3s2)c(F)cc1CC(=O)O` [IT241]: the EC50 was greater than 500 nM.

Consider `C[C@@H](OC(=O)Nc1scnc1C#Cc1cc2sc(C3(C(=O)O)CC3)cc2s1)c1ccccc1` [IT116], for which the concentration giving a half-maximal response (EC50) was greater than 500 nM.

`C[C@@H](OC(=O)Nc1c(-c2cc3sc(-c4ccc(C5(C(=O)O)CC5)cc4OC(F)(F)F)cc3s2)nnn1C)c1ccccc1` [IT386] returned a concentration giving a half-maximal response (EC50) of 50 to 500 nM.

Consider `C[C@@H](OC(=O)Nc1c(-c2cc3sc(-c4ccc5c(CC(=O)O)coc5c4)cc3s2)nnn1C)c1ccccc1` [IT369], for which the 50% effective concentration (EC50) is 50 to 500 nM.

`COc1cc(-c2cc3sc(-c4nnn(C)c4NC(=O)O[C@H](C)c4ccccc4)cc3s2)ccc1C1(C(=O)O)CC1` [IT330] displayed an EC50 of 50 to 500 nM.

`C[C@@H](OC(=O)Nc1c(-c2cc3sc(-c4ccc5occ(CC(=O)O)c5c4)cc3s2)nnn1C)c1ccccc1` [IT268]: the concentration giving a half-maximal response (EC50) is 50 to 500 nM.

Compound `C[C@@H](NC(=O)C#Cc1ccc(-c2cnn(C)c2NC(=O)O[C@H](C)c2ccccc2)cc1)C(=O)O` [IT399] registered a 50% effective concentration (EC50) greater than 500 nM.

`COc1cc(-c2cc3sc(-c4snc(C)c4NC(=O)O[C@H](C)c4ccccc4)cc3s2)ccc1CC(=O)O` [IT219]: the half-maximal effective concentration (EC50) was greater than 500 nM.

`Cc1nsc(-c2ccc(-c3ccc(C4(C(=O)O)CC4)s3)cc2)c1NC(=O)O[C@H](C)c1ccccc1` [IT237] gave an EC50 of 50 to 500 nM.

The compound `Cc1nsc(-c2cc3sc(-c4ccc(CC(=O)O)c5ccccc45)cc3s2)c1NC(=O)O[C@H](C)c1ccccc1` [IT317] yielded an EC50 greater than 500 nM.

On to `Cc1nsc(-c2cc3sc(-c4ccc(C5(C(=O)O)CC5)cc4F)cc3s2)c1NC(=O)O[C@H](C)c1ccccc1` [IT244], for which the EC50 was less than 50 nM.

Regarding `Cc1cc(-c2cc3sc(-c4nnn(C)c4NC(=O)O[C@H](C)c4ccccc4)cc3s2)c(F)cc1CC(=O)O` [IT242], the EC50 was greater than 500 nM.

The compound `C[C@@H](OC(=O)Nc1c(-c2cc3sc(-c4ccc(CC(=O)O)cc4C(F)(F)F)cc3s2)cnn1C)c1ccccc1` [IT362] showed an EC50 greater than 500 nM.

Regarding `C[C@@H](OC(=O)NC1=C(c2ccc(-c3cc(F)c(OC(C)(C)C(=O)O)c(F)c3)cc2)OC2C=CC=CC12)c1ccccc1` (stereo partly shown) [IT501], the concentration giving a half-maximal response (EC50) lay in the range of 50 to 500 nM.

Consider `COc1cc(-c2cc3sc(-c4cnn(C)c4NC(=O)O[C@H](C)c4ccccc4)cc3s2)ccc1C1(C(=O)O)CC1` [IT329], for which the 50% effective concentration (EC50) lay within 50 to 500 nM.

On to `Cc1noc(-c2ccc(-c3ccc(Oc4ccc(C(=O)O)cc4)cc3)cc2)c1NC(=O)O[C@H](C)c1ccccc1` [IT368], for which the EC50 was greater than 500 nM.

On to `C[C@H](NC(=O)C#Cc1ccc(-c2cnn(C)c2NC(=O)O[C@H](C)c2ccccc2)cc1)C(=O)O` [IT400], for which the EC50 is greater than 500 nM.

Turning to `Cc1nsc(-c2cc3sc(-c4ccc(-c5nnc(C6(C(=O)O)CC6)o5)cc4)cc3s2)c1NC(=O)O[C@H](C)c1ccccc1` [IT216], the half-maximal effective concentration (EC50) was greater than 500 nM.

As to `Cc1cc(-c2cc3sc(-c4cnn(C)c4NC(=O)O[C@H](C)c4ccccc4)cc3s2)c(F)cc1C1(C(=O)O)CC1` [IT339], the concentration giving a half-maximal response (EC50) fell in the range of 50 to 500 nM.

Take `COc1cc(C2(C(=O)O)CC2)ccc1-c1cc2sc(-c3nnn(C)c3NC(=O)O[C@H](C)c3ccccc3)cc2s1` [IT357]: the EC50 was in the range of 50 to 500 nM.

In turn, `Cc1noc(-c2ccc3c(c2)CCCc2cc(CC(=O)O)ccc2-3)c1NC(=O)O[C@H](C)c1ccccc1` [IT280] gave an EC50 of less than 50 nM.

In turn, `C[C@@H](OC(=O)Nc1c(-c2cc3sc(-c4ccc5[nH]c(C6(C(=O)O)CC6)nc5c4)cc3s2)cnn1C)c1ccccc1` [IT427] yielded a concentration giving a half-maximal response (EC50) greater than 500 nM.

Take `Cc1noc(-c2ccc(-c3ccc(OCC(=O)O)cc3)cc2)c1NC(=O)O[C@H](C)c1ccccc1` [IT277]: the EC50 was in the range of 50 to 500 nM.

For the compound `Cc1nsc(-c2cc3sc(-c4cc(Cl)c(C5(C(=O)O)CC5)cc4F)cc3s2)c1NC(=O)O[C@H](C)c1ccccc1` [IT286], the EC50 lay within 50 to 500 nM.

Compound `C[C@@H](OC(=O)Nc1c(-c2cc3sc(-c4ccc(C5(C(=O)O)CC5)s4)cc3s2)nnn1C)c1ccccc1` [IT273] returned an EC50 of 50 to 500 nM.

Consider `COc1cc(-c2cc3sc(-c4nnn(C)c4NC(=O)O[C@H](C)c4ccccc4)cc3s2)ccc1CC(=O)O` [IT220], for which the EC50 was in the range of 50 to 500 nM.

Compound `Cc1nsc(-c2cc3sc(-c4ccc(CC(=O)O)c(F)c4F)cc3s2)c1NC(=O)O[C@H](C)c1ccccc1` [IT265] yielded an EC50 of 50 to 500 nM.

The compound `Cc1nsc(-c2ccc(-c3nnc(C4(C(=O)O)CC4)o3)cc2)c1NC(=O)O[C@H](C)c1ccccc1` [IT176] yielded an EC50 greater than 500 nM.

In turn, `C[C@@H](OC(=O)Nc1[nH]ncc1C#Cc1cc2sc(C3(C(=O)O)CC3)cc2s1)c1ccccc1` [IT127] showed a 50% effective concentration (EC50) greater than 500 nM.
